Values joined by “and” are separate entries in the source; they are usually repeats but may differ in a detail not shown here. Equal values may be shown once. Blank lines part the entries; values can stand above or below the compound they belong to.
How the values were obtained:
MAP3K5 = target: T1, MAP3K5 (Homo sapiens, UniProt Q99683); assay: Kinobeads two-dose competition binding: MAP3K5; settings: Drugmatrix - all 2, read-out: apparent Kd MAP3K5
T1 construct: endogenous in cells

RIPK2 = target: T2, RIPK2 (Homo sapiens, UniProt O43353); assay: Kinobeads full dose-response competition binding: RIPK2; settings: Gene Name RIPK2
T2 construct: endogenous in cells

MAPK14 = target: T3, MAPK14 (Homo sapiens, UniProt Q16539); assay: Kinobeads full dose-response competition binding: MAPK14; settings: Gene Name MAPK14
T3 construct: endogenous in cells

SPR = target: T4, SPR (Homo sapiens, UniProt P35270); assay: Kinobeads full dose-response competition binding: SPR; settings: Gene Name SPR
T4 construct: endogenous in cells

PKN2 = target: T5, PKN2 (Homo sapiens, UniProt Q16513); assay: Kinobeads full dose-response competition binding: PKN2; settings: Gene Name PKN2
T5 construct: a mixture of lysates from five cancer cell lines; endogenous in cells

PRKACA = target: T6, PRKACA (Homo sapiens, UniProt P17612); assay: Kinobeads full dose-response competition binding: PRKACA; settings: Gene Name PRKACA
T6 construct: a mixture of lysates from five cancer cell lines; endogenous in cells

PRKAG2 = target: T7, PRKAG2 (Homo sapiens, UniProt Q9UGJ0); assay: Kinobeads competition binding, Lestaurtinib control replicates: PRKAG2; settings: read-out: Lestaurtinib Drugmatrix value, PRKAG2; Gene Name PRKAG2; one column per experiment number and replicate (R1-R3)
T7 construct: endogenous in cells

NTRK1 = target: T8, NTRK1 (Homo sapiens, UniProt P04629); assay: Kinobeads competition binding, Lestaurtinib control replicates: NTRK1; settings: read-out: Lestaurtinib Drugmatrix value, NTRK1; Gene Name NTRK1; one column per experiment number and replicate (R1-R3)
T8 construct: endogenous in cells

ABL2 = target: T9, ABL2 (Homo sapiens, UniProt P42684); assay: Kinobeads two-dose competition binding: ABL2; settings: read-out: Lestaurtinib Drugmatrix value, Gene Name ABL2
T9 construct: endogenous in cells

ULK1 = target: T10, ULK1 (Homo sapiens, UniProt O75385); assay: Kinobeads two-dose competition binding: ULK1; settings: read-out: Lestaurtinib Drugmatrix value, Gene Name ULK1; repeated control pulldowns; each column = experiment id and replicate (Lestaurtinib_02339_R1 ... Lestaurtinib_03260_R3)
T10 construct: to maximize the representation of endogenous proteins; endogenous in cells

FLT4 = target: T11, FLT4 (Homo sapiens, UniProt P35916); assay: Kinobeads two-dose competition binding: FLT4; settings: read-out: Lestaurtinib Drugmatrix value, Gene Name FLT4
T11 construct: endogenous in cells

FRK = target: T12, FRK (Homo sapiens, UniProt P42685); assay: Kinobeads two-dose competition binding: FRK; settings: read-out: Lestaurtinib Drugmatrix value, Gene Name FRK; target FRK; each column = one Lestaurtinib control replicate (batch_R1-R3)
T12 construct: endogenous in cells

[1] = test system: IL-10 secretion in primary bone marrow-derived dendritic cells (BMDCs); assay: IL-10 cytokine secretion assay (ELISA) in Zymosan-stimulated primary BMDCs; format: cell-based, mouse; settings: murine BMDCs, inhibitor 30 min before Zymosan stimulation
Experimental: A subsequent full dose–response experiment confirmed potent and selective binding to SYK ( Kdapp = 58 nM, […] = 0.60; Extended Data Fig. 5a,b). […] One of the effects of Zymosan is that it activates Dectin-1 signaling, in turn activating SYK and leading to increased IL-10 cytokine production (Fig. 3c)[34]. Treatment of cells with the respective SYK inhibitors before Zymosan stimulation indeed led to decreased levels of IL-10 in a dose-dependent fashion (Fig. 3d). […] In line with the cytokine readout, we observed a dose depended reduction of pTyr525/526 indicating SYK inhibition in live cells (Fig. 3e and Extended Data Fig. 5c).
Primary BMDCs were obtained from 9-week-old C57BL/6 mice that were maintained under standard specific pathogen-free conditions. BMDCs were differentiated for 7 days in Roswell Park Memorial Institute medium (Gibco) and granulocyte-macrophage colony-stimulating factor. On day seven, BMDCs were seeded in 96-well plates at 10^5 cells per well in 100 µl of culture medium followed by incubation for 4 h at 37 °C. Subsequently, cells were incubated with SYK inhibitors for 30 min followed by stimulation with Zymosan (final concentration of 50 µg ml^−1; Invivogen) and dispersed in culture medium for 24 h. […] For cytokine secretion quantification, cell culture medium was collected and concentrations of IL-10 in the supernatant were determined using mouse enzyme-linked immunosorbent assay kits (IL-10: Invitrogen) according to the manufacturer’s protocol. Experiments were performed in biological triplicates.

[2] = EC50 with Correction, doses in nM, read-out: apparent Kd
[3] = eight-dose curve fit, doses in nM

T7 sequence (Q9UGJ0 whole entry): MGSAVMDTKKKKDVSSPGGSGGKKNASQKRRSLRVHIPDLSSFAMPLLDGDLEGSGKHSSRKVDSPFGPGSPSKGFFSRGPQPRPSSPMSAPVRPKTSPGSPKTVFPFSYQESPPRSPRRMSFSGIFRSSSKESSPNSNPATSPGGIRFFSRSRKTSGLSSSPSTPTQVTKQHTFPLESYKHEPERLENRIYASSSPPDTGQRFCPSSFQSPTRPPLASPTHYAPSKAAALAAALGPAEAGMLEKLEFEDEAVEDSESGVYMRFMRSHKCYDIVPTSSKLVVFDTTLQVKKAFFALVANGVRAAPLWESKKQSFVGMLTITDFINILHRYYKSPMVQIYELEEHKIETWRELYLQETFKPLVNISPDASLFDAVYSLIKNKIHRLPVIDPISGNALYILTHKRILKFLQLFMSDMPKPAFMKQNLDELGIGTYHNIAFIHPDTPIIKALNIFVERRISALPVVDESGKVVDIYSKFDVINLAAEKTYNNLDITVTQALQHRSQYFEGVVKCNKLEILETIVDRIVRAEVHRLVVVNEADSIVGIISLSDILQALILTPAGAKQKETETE
T7 sequence (Q13131 whole entry partner): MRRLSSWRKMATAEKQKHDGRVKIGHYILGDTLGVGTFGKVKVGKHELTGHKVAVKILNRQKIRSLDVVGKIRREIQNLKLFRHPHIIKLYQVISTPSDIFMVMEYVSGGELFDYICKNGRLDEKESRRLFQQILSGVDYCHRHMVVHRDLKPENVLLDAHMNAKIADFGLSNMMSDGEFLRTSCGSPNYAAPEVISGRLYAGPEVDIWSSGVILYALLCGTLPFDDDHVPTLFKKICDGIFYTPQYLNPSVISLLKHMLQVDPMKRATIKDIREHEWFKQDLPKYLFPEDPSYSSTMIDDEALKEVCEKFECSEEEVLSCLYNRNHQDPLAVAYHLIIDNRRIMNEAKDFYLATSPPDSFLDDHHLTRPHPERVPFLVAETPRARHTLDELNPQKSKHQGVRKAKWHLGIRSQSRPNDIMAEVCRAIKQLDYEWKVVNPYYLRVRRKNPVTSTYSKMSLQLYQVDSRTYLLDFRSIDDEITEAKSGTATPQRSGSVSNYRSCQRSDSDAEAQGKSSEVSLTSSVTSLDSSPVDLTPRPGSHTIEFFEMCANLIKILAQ
T7 sequence (Q9Y478 2-270 partner limits assumed): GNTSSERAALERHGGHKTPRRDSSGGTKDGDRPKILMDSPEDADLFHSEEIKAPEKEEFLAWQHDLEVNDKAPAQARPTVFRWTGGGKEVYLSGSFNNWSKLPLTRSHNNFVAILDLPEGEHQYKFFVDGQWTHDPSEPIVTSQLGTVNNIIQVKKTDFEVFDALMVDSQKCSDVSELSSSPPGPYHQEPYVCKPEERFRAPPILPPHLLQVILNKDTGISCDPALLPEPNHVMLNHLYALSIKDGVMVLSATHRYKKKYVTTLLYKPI
T4 sequence (P35270 whole entry): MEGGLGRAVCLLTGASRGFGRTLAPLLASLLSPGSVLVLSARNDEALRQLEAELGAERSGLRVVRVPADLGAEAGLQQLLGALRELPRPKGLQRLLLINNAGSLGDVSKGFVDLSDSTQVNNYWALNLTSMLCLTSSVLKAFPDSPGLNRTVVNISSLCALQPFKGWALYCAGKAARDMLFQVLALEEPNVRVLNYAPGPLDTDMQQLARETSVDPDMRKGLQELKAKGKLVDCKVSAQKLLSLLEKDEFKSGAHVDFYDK
T2 sequence (O43353 whole entry): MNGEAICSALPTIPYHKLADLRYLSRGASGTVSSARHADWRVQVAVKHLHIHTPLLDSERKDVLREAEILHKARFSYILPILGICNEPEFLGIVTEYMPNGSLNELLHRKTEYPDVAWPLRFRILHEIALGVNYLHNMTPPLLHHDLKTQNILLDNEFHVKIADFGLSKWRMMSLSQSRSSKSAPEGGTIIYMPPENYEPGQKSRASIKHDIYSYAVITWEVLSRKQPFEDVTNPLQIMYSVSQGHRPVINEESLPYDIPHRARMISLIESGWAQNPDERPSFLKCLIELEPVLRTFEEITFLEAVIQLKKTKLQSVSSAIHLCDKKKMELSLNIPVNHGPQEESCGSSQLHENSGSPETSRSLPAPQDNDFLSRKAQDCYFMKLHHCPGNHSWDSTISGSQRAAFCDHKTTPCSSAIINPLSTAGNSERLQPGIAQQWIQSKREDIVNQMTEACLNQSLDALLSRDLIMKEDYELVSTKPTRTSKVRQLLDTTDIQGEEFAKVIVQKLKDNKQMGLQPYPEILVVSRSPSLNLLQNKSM
T5 sequence (Q16513 whole entry): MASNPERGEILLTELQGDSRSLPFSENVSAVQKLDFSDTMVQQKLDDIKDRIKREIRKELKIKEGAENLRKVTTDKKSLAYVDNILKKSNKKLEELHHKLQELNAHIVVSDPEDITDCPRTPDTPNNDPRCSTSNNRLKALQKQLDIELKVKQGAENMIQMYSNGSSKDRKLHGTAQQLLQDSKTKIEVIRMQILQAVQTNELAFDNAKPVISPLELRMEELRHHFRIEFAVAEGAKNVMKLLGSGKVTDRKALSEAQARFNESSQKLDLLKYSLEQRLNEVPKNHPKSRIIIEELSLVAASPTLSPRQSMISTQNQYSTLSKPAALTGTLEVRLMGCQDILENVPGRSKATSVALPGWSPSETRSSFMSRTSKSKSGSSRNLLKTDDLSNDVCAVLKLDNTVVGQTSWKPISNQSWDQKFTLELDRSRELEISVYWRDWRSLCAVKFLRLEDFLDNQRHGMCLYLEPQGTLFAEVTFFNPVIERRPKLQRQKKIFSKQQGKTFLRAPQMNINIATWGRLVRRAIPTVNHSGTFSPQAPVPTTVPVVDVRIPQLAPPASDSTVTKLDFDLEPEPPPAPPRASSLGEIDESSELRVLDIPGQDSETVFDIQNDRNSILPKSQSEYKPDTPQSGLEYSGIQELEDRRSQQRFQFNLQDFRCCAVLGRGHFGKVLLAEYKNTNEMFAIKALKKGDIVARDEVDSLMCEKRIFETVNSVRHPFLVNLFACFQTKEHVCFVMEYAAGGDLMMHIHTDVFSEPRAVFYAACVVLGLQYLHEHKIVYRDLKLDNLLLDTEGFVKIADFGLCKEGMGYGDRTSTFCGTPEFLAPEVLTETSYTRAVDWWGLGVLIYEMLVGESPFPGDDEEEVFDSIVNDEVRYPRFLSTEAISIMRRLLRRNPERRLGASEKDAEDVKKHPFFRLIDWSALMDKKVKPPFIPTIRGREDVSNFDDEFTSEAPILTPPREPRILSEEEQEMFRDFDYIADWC
T3 sequence (Q16539 whole entry): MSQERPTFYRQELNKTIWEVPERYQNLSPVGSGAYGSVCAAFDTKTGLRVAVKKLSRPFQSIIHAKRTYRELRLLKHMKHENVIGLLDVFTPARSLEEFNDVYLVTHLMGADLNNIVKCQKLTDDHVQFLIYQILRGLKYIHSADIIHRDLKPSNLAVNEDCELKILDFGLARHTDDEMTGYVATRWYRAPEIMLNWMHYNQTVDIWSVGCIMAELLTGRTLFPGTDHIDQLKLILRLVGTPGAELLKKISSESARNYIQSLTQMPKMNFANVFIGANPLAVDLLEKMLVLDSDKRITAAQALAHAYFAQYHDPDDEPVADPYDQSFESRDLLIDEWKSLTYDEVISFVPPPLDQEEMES
T10 sequence (O75385 whole entry): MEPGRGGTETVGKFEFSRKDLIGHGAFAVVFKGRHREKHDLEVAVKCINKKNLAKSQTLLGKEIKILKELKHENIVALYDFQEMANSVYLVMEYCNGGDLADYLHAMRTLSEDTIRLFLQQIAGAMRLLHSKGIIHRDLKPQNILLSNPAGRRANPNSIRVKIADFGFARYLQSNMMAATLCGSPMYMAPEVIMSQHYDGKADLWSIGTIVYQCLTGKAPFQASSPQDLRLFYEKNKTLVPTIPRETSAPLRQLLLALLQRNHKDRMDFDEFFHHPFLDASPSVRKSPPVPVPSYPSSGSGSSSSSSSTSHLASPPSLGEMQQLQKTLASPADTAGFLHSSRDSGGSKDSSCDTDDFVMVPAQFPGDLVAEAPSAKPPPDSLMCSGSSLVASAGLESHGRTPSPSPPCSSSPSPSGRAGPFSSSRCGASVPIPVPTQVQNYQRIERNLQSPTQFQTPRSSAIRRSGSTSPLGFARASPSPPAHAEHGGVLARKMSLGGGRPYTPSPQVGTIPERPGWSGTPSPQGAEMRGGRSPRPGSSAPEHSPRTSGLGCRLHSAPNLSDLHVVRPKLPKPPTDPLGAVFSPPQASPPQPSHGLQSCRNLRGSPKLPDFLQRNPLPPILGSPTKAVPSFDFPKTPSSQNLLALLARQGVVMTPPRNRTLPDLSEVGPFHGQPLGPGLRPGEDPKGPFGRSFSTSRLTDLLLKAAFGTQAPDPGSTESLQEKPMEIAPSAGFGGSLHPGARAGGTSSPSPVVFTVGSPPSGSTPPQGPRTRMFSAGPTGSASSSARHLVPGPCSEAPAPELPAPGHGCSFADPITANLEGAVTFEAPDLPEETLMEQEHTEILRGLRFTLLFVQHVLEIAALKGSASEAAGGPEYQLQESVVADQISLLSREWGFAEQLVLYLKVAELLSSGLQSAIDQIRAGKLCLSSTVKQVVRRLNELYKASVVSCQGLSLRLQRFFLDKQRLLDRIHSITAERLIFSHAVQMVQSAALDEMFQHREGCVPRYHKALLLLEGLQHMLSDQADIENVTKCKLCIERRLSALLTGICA

potency estimated from few doses (MAP3K5): > 1000 nM
Compound: CC(C)N1CC(=O)N(C)c2cnc(Nc3cccc(S(=O)(=O)CCN4CCOCC4)c3)nc21 [BI00009348]

Compound: NCc1ccc(-c2nc(-c3ccncc3)c(-c3ccc(Cl)c(O)c3)[nH]2)cc1 [SB-476429-A]
Relative Intensity 0.3nM (RIPK2; 0.3nM compound, DMSO = 1): 0.9341
Relative Intensity 1nM (RIPK2; 1nM compound, DMSO = 1): 0.8676
Relative Intensity 3nM (RIPK2; 3nM compound, DMSO = 1): 0.8459
Relative Intensity 10nM (RIPK2; 10nM compound, DMSO = 1): 0.8036
Relative Intensity 30nM (RIPK2; 30nM compound, DMSO = 1): 0.6574
Relative Intensity 100nM (RIPK2; 100nM compound, DMSO = 1): 0.3411
Relative Intensity 300nM (RIPK2; 300nM compound, DMSO = 1): 0.1841
Relative Intensity 1000nM (RIPK2; 1000nM compound, DMSO = 1): 0.1065
Kd (RIPK2; [2]): 28.8 nM
EC50 (RIPK2; [3]): 55.9 nM
Relative Intensity 0.3nM (MAPK14; 0.3nM compound, DMSO = 1): 1.121
Relative Intensity 1nM (MAPK14; 1nM compound, DMSO = 1): 0.9468
Relative Intensity 3nM (MAPK14; 3nM compound, DMSO = 1): 1.026
Relative Intensity 10nM (MAPK14; 10nM compound, DMSO = 1): 0.8638
Relative Intensity 30nM (MAPK14; 30nM compound, DMSO = 1): 0.6876
Relative Intensity 100nM (MAPK14; 100nM compound, DMSO = 1): 0.6751
Relative Intensity 300nM (MAPK14; 300nM compound, DMSO = 1): 0.325
Relative Intensity 1000nM (MAPK14; 1000nM compound, DMSO = 1): 0.2
Kd (MAPK14; [2]): 174 nM
EC50 (MAPK14; [3]): 174 nM
Relative Intensity 0.3nM (SPR; 0.3nM compound, DMSO = 1): 0.9627
Relative Intensity 1nM (SPR; 1nM compound, DMSO = 1): 0.9101
Relative Intensity 3nM (SPR; 3nM compound, DMSO = 1): 0.8696
Relative Intensity 10nM (SPR; 10nM compound, DMSO = 1): 0.7693
Relative Intensity 30nM (SPR; 30nM compound, DMSO = 1): 0.5216
Relative Intensity 100nM (SPR; 100nM compound, DMSO = 1): 0.1442
Relative Intensity 300nM (SPR; 300nM compound, DMSO = 1): 0.02935
Relative Intensity 1000nM (SPR; 1000nM compound, DMSO = 1): 0.01082
Kd (SPR; [2]): 32.8 nM
EC50 (SPR; [3]): 32.8 nM

Relative Intensity 0.3nM (PKN2; 0.3nM compound, DMSO = 1): 0.9769
Relative Intensity 1nM (PKN2; 1nM compound, DMSO = 1): 1.016
Relative Intensity 3nM (PKN2; 3nM compound, DMSO = 1): 1.0433
Relative Intensity 10nM (PKN2; 10nM compound, DMSO = 1): 1.014
Relative Intensity 30nM (PKN2; 30nM compound, DMSO = 1): 0.9503
Relative Intensity 100nM (PKN2; 100nM compound, DMSO = 1): 0.8449
Relative Intensity 300nM (PKN2; 300nM compound, DMSO = 1): 0.6334
Relative Intensity 1000nM (PKN2; 1000nM compound, DMSO = 1): 0.3485
Kd (PKN2; [2]): 401 nM
EC50 (PKN2; [3]): 401 nM
Relative Intensity 0.3nM (PRKACA; 0.3nM compound, DMSO = 1): 1.008
Relative Intensity 1nM (PRKACA; 1nM compound, DMSO = 1): 0.9404
Relative Intensity 3nM (PRKACA; 3nM compound, DMSO = 1): 0.9819
Relative Intensity 10nM (PRKACA; 10nM compound, DMSO = 1): 0.932
Relative Intensity 30nM (PRKACA; 30nM compound, DMSO = 1): 0.8034
Relative Intensity 100nM (PRKACA; 100nM compound, DMSO = 1): 0.7942
Relative Intensity 300nM (PRKACA; 300nM compound, DMSO = 1): 0.6618
Relative Intensity 1000nM (PRKACA; 1000nM compound, DMSO = 1): 0.5702
Kd (PRKACA; [2]): 212 nM
EC50 (PRKACA; [3]): 230 nM
Compound: CCn1c(-c2nonc2N)nc2c(C#CC(C)(C)O)nc(OCCN)cc21 [GSK902056A]

Compound: C[C@]12O[C@H](C[C@]1(O)CO)n1c3ccccc3c3c4c(c5c6ccccc6n2c5c31)CNC4=O [Lestaurtinib]
potency estimated from few doses (PRKAG2): 888 nM (2×) and 629 nM and 352 nM and 850 nM and 720 nM
potency estimated from few doses (NTRK1): 772 nM
potency estimated from few doses (ABL2): 340 nM
potency estimated from few doses (ULK1): 549 nM
potency estimated from few doses (FLT4): 396 nM
potency estimated from few doses (FRK): 751 nM

Compound: Cn1cc(-c2nc(N[C@@H]3CCCC[C@@H]3N)c(F)c3c2C(=O)NC3)cn1 [TAK659]
IL-10 levels [1]: dose-dependent reduction
